Test results: BindingDB's records for doi:10.7270/Q2JQ0ZF7 (Nmmlsc, 2009)

molecular target: T1, GTPase KRas [1-37] (Homo sapiens, UniProt G3V5T7); assay: blockade of Bodipy-GTP loading onto wild-type Ras – biochemical, oxadiazole analogs, multiplex bead flow cytometry, SAR follow-up (AID 2053); details: not given
T1 construct: 1-37
T1 sequence (G3V5T7 whole entry): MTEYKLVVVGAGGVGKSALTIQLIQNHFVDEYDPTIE

| Structure (SMILES) | EC50 |
| --- | --- |
| COc1ccc(-c2noc(CCC(=O)N3CCN(c4ccc(F)cc4)CC3)n2)cc1 [KUC103398N] | > 30 µM |
| COc1ccc(-c2noc(CCC(=O)N3CCN(c4ccc(Br)cc4)CC3)n2)cc1 [1-[4-(4-bromophenyl)piperazin-1-yl]-3-[3-(4-methoxyphenyl)-1,2,4-oxadiazol-5-yl]propan-1-one] | > 30 µM |
| Cc1ccc(C)c(N2CCN(C(=O)CCc3nc(-c4cccc(Br)c4)no3)CC2)c1 [KUC103367N] | > 30 µM |
| COc1ccc(-c2ccc(CCC(=O)N3CCN(c4cc(C)ccc4C)CC3)o2)cc1 [KUC103447N] | > 30 µM |
| Cc1ccc(C)c(N2CCN(C(=O)CCc3nc(-c4ccc(C(F)(F)F)cc4)no3)CC2)c1 [1-[4-(2,5-dimethylphenyl)-1-piperazinyl]-3-[3-[4-(trifluoromethyl)phenyl]-1,2,4-oxadiazol-5-yl]-1-propanone] | > 30 µM |
| COc1ccc(-c2noc(CCC(=O)N3CCN(c4ccccc4Br)CC3)n2)cc1 [KUC103370N] | > 30 µM |
| COc1ccc(-c2noc(CCC(=O)N3CCN(c4cccc(OC)c4)CC3)n2)cc1 [KUC103349N] | > 30 µM |
| COc1ccc(-c2noc(CCC(=O)N3CCN(c4ccc(C(F)(F)F)cc4)CC3)n2)cc1 [3-[3-(4-methoxyphenyl)-1,2,4-oxadiazol-5-yl]-1-[4-[4-(trifluoromethyl)phenyl]piperazin-1-yl]propan-1-one] | > 30 µM |
| Cc1ccc(C)c(N2CCN(C(=O)CCc3nc(-c4cccc(C(F)(F)F)c4)no3)CC2)c1 [KUC103380N] | > 30 µM |
| COc1ccc(-c2noc(CCC(=O)N3CCN(c4ccccc4)CC3)n2)cc1 [3-[3-(4-methoxyphenyl)-1,2,4-oxadiazol-5-yl]-1-(4-phenylpiperazin-1-yl)propan-1-one] | > 30 µM |
| COc1ccc(-c2noc(CCC(=O)N3CCN(c4cccc(Cl)c4)CC3)n2)cc1 | > 30 µM |
| Cc1ccc(C)c(N2CCN(C(=O)CCc3nc(-c4ccc(N(C)C)cc4)no3)CC2)c1 [KUC103409N] | > 30 µM |
| COc1ccc(-c2coc(CCC(=O)N3CCN(c4cc(C)ccc4C)CC3)n2)cc1 [1-[4-(2,5-dimethylphenyl)piperazin-1-yl]-3-[4-(4-methoxyphenyl)-1,3-oxazol-2-yl]propan-1-one] | > 30 µM |
| COc1ccc(-c2noc(CCC(=O)N3CCC(c4cc(C)ccc4C)CC3)n2)cc1 [KUC103432N] | > 30 µM |
| Cc1ccc(C)c(N2CCN(C(=O)CCc3nc(-c4ccccc4Cl)no3)CC2)c1 [3-[3-(2-chlorophenyl)-1,2,4-oxadiazol-5-yl]-1-[4-(2,5-dimethylphenyl)-1-piperazinyl]-1-propanone] | > 30 µM |
| COc1ccc(-c2noc(CCC(=O)N3CCN(c4cccc(C)c4)CC3)n2)cc1 [UNM-0000306125] | > 30 µM |
| COc1ccc(-c2noc(CCCCC(=O)N3CCN(c4cc(C)ccc4C)CC3)n2)cc1 [1-[4-(2,5-dimethylphenyl)-1-piperazinyl]-5-[3-(4-methoxyphenyl)-1,2,4-oxadiazol-5-yl]-1-pentanone] | > 30 µM |
| COc1ccc(-c2noc(CCC(=O)N3CCN(c4cccc(C)c4C)CC3)n2)cc1 [1-[4-(2,3-dimethylphenyl)-1-piperazinyl]-3-[3-(4-methoxyphenyl)-1,2,4-oxadiazol-5-yl]-1-propanone] | > 30 µM |
| COc1ccc(-c2noc(CCC(=O)N3CCN(c4ccc(OC)cc4)CC3)n2)cc1 [3-[3-(4-methoxyphenyl)-1,2,4-oxadiazol-5-yl]-1-[4-(4-methoxyphenyl)piperazin-1-yl]propan-1-one] | > 30 µM |
| COc1ccc(-c2noc(CCC(=O)N3CCN(c4ccccc4C(F)(F)F)CC3)n2)cc1 [UNM-0000306082] | > 30 µM |
| COc1ccc(-c2noc(CCC(=O)N3CCN(c4ccccc4C)CC3)n2)cc1 | > 30 µM |
| Cc1ccc(C)c(N2CCN(C(=O)CCc3nc(-c4cccc(Cl)c4)no3)CC2)c1 [UNM-0000306086] | > 30 µM |

| Structure (SMILES) | EC50 |
| --- | --- |
| COc1ccc(-c2noc(CCCC(=O)N3CCN(c4cc(C)ccc4C)CC3)n2)cc1 [KUC103353N] | > 30 µM |
| Cc1ccc(C)c(N2CCN(C(=O)CCc3nc(-c4ccc(F)cc4)no3)CC2)c1 [KUC103364N] | > 30 µM |
| Cc1ccc(C)c(N2CCN(C(=O)CCc3nc(-c4ccccc4C)no3)CC2)c1 | > 30 µM |
| COc1ccc(-c2noc(CCC(=O)N3CCN(c4ccccc4OC)CC3)n2)cc1 [3-[3-(4-methoxyphenyl)-1,2,4-oxadiazol-5-yl]-1-[4-(2-methoxyphenyl)-1-piperazinyl]-1-propanone] | > 30 µM |
| COc1ccc(-c2ccc(CCC(=O)N3CCN(c4cc(C)ccc4C)CC3)[nH]2)cc1 [1-[4-(2,5-dimethylphenyl)piperazin-1-yl]-3-[5-(4-methoxyphenyl)-1H-pyrrol-2-yl]propan-1-one] | > 30 µM |
| COc1ccc(-c2noc(CCC(=O)N3CCN(c4ccc(C)cc4)CC3)n2)cc1 [3-[3-(4-methoxyphenyl)-1,2,4-oxadiazol-5-yl]-1-[4-(4-methylphenyl)piperazin-1-yl]propan-1-one] | > 30 µM |
| Cc1cccc(-c2noc(CCC(=O)N3CCN(c4cc(C)ccc4C)CC3)n2)c1 [1-[4-(2,5-dimethylphenyl)piperazin-1-yl]-3-[3-(3-methylphenyl)-1,2,4-oxadiazol-5-yl]propan-1-one] | > 30 µM |
| COc1ccc(-c2cc(CCC(=O)N3CCN(c4cc(C)ccc4C)CC3)[nH]n2)cc1 [UNM-0000306150] | > 30 µM |
| COc1ccc(-c2noc(CCC(=O)N3CCN(c4cccc(C(F)(F)F)c4)CC3)n2)cc1 [1-{3-[3-(4-methoxyphenyl)-1,2,4-oxadiazol-5-yl]propanoyl}-4-[3-(trifluoromethyl)phenyl]piperazine] | > 30 µM |
| COc1ccc(-c2ccc(CCC(=O)N3CCN(c4cc(C)ccc4C)CC3)s2)cc1 | > 30 µM |
| Cc1ccc(C)c(N2CCN(C(=O)CCc3nc(-c4ccccc4F)no3)CC2)c1 [KUC103401N] | > 30 µM |
| COc1ccc(-c2cccc(CCC(=O)N3CCN(c4cc(C)ccc4C)CC3)c2)cc1 [UNM-0000306127] | > 30 µM |
| COc1ccc(-c2noc(CCC(=O)N3CCN(c4ccc(Cl)cc4)CC3)n2)cc1 [UNM-0000306121] | > 30 µM |
| Cc1ccc(C)c(N2CCN(C(=O)CCc3nc(-c4cccc(F)c4)no3)CC2)c1 [KUC103366N] | > 30 µM |
| COc1ccccc1-c1noc(CCC(=O)N2CCN(c3cc(C)ccc3C)CC2)n1 [UNM-0000306071] | > 30 µM |
| Cc1ccc(C)c(N2CCN(C(=O)CCc3nc(-c4ccccc4C(F)(F)F)no3)CC2)c1 | > 30 µM |
| COc1ccc(-c2noc(CC(=O)N3CCN(c4cc(C)ccc4C)CC3)n2)cc1 [1-[4-(2,5-dimethylphenyl)piperazin-1-yl]-2-[3-(4-methoxyphenyl)-1,2,4-oxadiazol-5-yl]ethanone] | > 30 µM |
| COc1ccc(-c2cc(CCC(=O)N3CCN(c4cc(C)ccc4C)CC3)on2)cc1 [1-[4-(2,5-dimethylphenyl)piperazin-1-yl]-3-[3-(4-methoxyphenyl)-1,2-oxazol-5-yl]propan-1-one] | > 30 µM |
| COc1ccc(-c2noc(CCC(=O)N3CCN(c4cccc(F)c4)CC3)n2)cc1 [1-[4-(3-fluorophenyl)piperazin-1-yl]-3-[3-(4-methoxyphenyl)-1,2,4-oxadiazol-5-yl]propan-1-one] | > 30 µM |
| Cc1ccc(C)c(N2CCN(C(=O)CCc3nc(-c4ccc(Cl)cc4)no3)CC2)c1 [UNM-0000306083] | > 30 µM |
| Cc1ccc(-c2noc(CCC(=O)N3CCN(c4cc(C)ccc4C)CC3)n2)cc1 [1-[4-(2,5-dimethylphenyl)-1-piperazinyl]-3-[3-(4-methylphenyl)-1,2,4-oxadiazol-5-yl]-1-propanone] | > 30 µM |

same assay, conditions: inactive by the depositor's call

| Structure (SMILES) | EC50 |
| --- | --- |
| COc1ccc(-c2noc(CCC(=O)N3CCN(c4cccc(Br)c4)CC3)n2)cc1 [1-[4-(3-bromophenyl)-1-piperazinyl]-3-[3-(4-methoxyphenyl)-1,2,4-oxadiazol-5-yl]-1-propanone] | 0.017 µM |
| Cc1ccc(C)c(N2CCN(C(=O)CCc3nc(-c4ccccc4Br)no3)CC2)c1 [3-[3-(2-bromophenyl)-1,2,4-oxadiazol-5-yl]-1-[4-(2,5-dimethylphenyl)-1-piperazinyl]-1-propanone] | 0.033 µM |
| COc1cccc(-c2noc(CCC(=O)N3CCN(c4cc(C)ccc4C)CC3)n2)c1 | 1.49 µM |
| Cc1ccc(C)c(N2CCN(C(=O)CCc3nc(-c4ccc(Br)cc4)no3)CC2)c1 [UNM-0000306072] | 1.83 µM |
| COc1ccc(-c2noc(CCC(=O)N3CCN(c4cc(C)ccc4C)CC3)n2)cc1 [1-[4-(2,5-dimethylphenyl)-1-piperazinyl]-3-[3-(4-methoxyphenyl)-1,2,4-oxadiazol-5-yl]-1-propanone] | 1.71 µM |
| COc1ccc(-c2noc(CCC(=O)N3CCN(c4ccccc4F)CC3)n2)cc1 [1-[4-(2-fluorophenyl)piperazin-1-yl]-3-[3-(4-methoxyphenyl)-1,2,4-oxadiazol-5-yl]propan-1-one] | 0.05 µM |
| COc1ccc(-c2noc(CCC(=O)N3CCN(c4ccccc4Cl)CC3)n2)cc1 [1-[4-(2-chlorophenyl)piperazin-1-yl]-3-[3-(4-methoxyphenyl)-1,2,4-oxadiazol-5-yl]propan-1-one] | 1.87 µM |
| Cc1ccc(C)c(N2CCN(C(=O)CCc3nc(-c4ccccc4)no3)CC2)c1 [UNM-0000306070] | 0.869 µM |
